Test results as given in the supplement of paper PMC10307832.

Tests used:
Assay in all cases: relative viability (nuclei count vs DMSO), 5 days (fraction); higher = more cells survive
Adavosertib = compound: C=CCn1c(=O)c2cnc(Nc3ccc(N4CCN(C)CC4)cc3)nc2n1-c1cccc(C(C)(C)O)n1 [Adavosertib]
Summary of the method: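 Viability here means nuclei in treated wells divided by nuclei in vehicle wells, reported as the median across plates. Only plates with control CV below 25% and at least one doubling passed. Lung cancer cell lines in 1536-well plates were exposed to five √10-spaced library-drug doses for 5 days and counted from 4× Hoechst images in MetaXpress.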

Adavosertib + Pemetrexed = compound: C=CCn1c(=O)c2cnc(Nc3ccc(N4CCN(C)CC4)cc3)nc2n1-c1cccc(C(C)(C)O)n1 [Adavosertib] + Nc1nc2[nH]cc(CCc3ccc(C(=O)N[C@@H](CCC(=O)O)C(=O)O)cc3)c2c(=O)[nH]1 [Pemetrexed] (partner 0.2 µM)
Summary of the method: (§1)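 For relative viability, nuclei counts in treated wells were divided by those in vehicle wells. Lung cancer cell lines had been pin-tool dosed in 1536-well plates the day after seeding and cultured for 5 days, then fixed and stained in one step (final 0.05% Triton X-100, 1% formaldehyde, 1 ug/ml Hoechst) and imaged at 4×. Doses were one drug alone or a fixed anchor-drug dose plus five library-drug doses (not always all listed) in √10 steps, and values are duplicate-plate medians.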

Adavosertib + Bortezomib = compound: C=CCn1c(=O)c2cnc(Nc3ccc(N4CCN(C)CC4)cc3)nc2n1-c1cccc(C(C)(C)O)n1 [Adavosertib] + CC(C)C[C@H](NC(=O)[C@H](Cc1ccccc1)NC(=O)c1cnccn1)B(O)O [Bortezomib] (partner 0.002 µM)
Summary of the method: as §1

Nelarabine + Phenformin = compound: COc1nc(N)nc2c1ncn2[C@@H]1O[C@H](CO)[C@@H](O)[C@@H]1O [Nelarabine] + N=C(N)NC(=N)NCCc1ccccc1 [Phenformin] (partner 250 µM)
Summary of the method: as §1

Row | Cell Line | relative viability (Adavosertib; 0.01 µM) | relative viability (Adavosertib; 0.03162 µM) | relative viability (Adavosertib; 0.1 µM) | relative viability (Adavosertib; 0.3162 µM) | relative viability (Adavosertib + Pemetrexed; first compound 0.01 µM) | relative viability (Adavosertib + Pemetrexed; first compound 0.03162 µM) | relative viability (Adavosertib + Pemetrexed; first compound 0.1 µM) | relative viability (Adavosertib + Pemetrexed; first compound 0.3162 µM) | relative viability (Adavosertib + Bortezomib; first compound 0.01 µM) | relative viability (Adavosertib + Bortezomib; first compound 0.03162 µM) | relative viability (Adavosertib + Bortezomib; first compound 0.1 µM) | relative viability (Adavosertib + Bortezomib; first compound 0.3162 µM) | relative viability (Nelarabine + Phenformin; first compound 0.01 µM) | relative viability (Nelarabine + Phenformin; first compound 0.03162 µM) | relative viability (Nelarabine + Phenformin; first compound 0.1 µM) | relative viability (Nelarabine + Phenformin; first compound 0.3162 µM) | relative viability (Nelarabine + Phenformin; first compound 1 µM)
1 | NCI-H2023 | 0.892 | 0.87 | 0.752 | 0.451 | 0.114 | 0.163 | 0.164 | 0.114 | 0.94 | 0.937 | 0.682 | 0.437 | 0.395 | 0.357 | 0.4 | 0.371 | 0.371
2 | NCI-H1975 | 0.971 | 0.899 | 0.935 | 0.759 | 0.263 | 0.268 | 0.209 | 0.213 | 0.356 | 0.353 | 0.399 | 0.324 | 0.472 | 0.389 | 0.4 | 0.399 | 0.432
3 | EPLC-272H | 0.853 | 0.961 | 0.757 | 0.497 | 0.33 | 0.258 | 0.175 | 0.116 | 0.959 | 0.805 | 0.866 | 0.732 | 0.236 | 0.291 | 0.272 | 0.265 | 0.291
4 | ChaGo-K-1 | 0.947 | 0.995 | 1.05 | 0.918 | 0.271 | 0.255 | 0.258 | 0.257 | 0.872 | 0.838 | 0.897 | 0.699 | 0.549 | 0.426 | 0.458 | 0.529 | 0.48
5 | NCI-H2228 | 0.994 | 0.996 | 0.946 | 0.616 | – | 0.331 | 0.361 | 0.2 | 0.875 | 0.941 | 0.818 | 0.358 | 0.434 | 0.244 | – | 0.345 | 0.293
6 | NCI-H650 | 0.896 | 0.972 | 1.03 | 0.859 | 0.892 | 1.07 | 0.952 | 0.774 | 0.597 | 0.795 | 1.07 | 0.663 | 0.505 | 0.425 | 0.46 | 0.457 | 0.461
7 | NCI-H1648 | 0.907 | 0.847 | 0.838 | 0.71 | 0.595 | 0.719 | 0.814 | 0.483 | – | – | – | – | – | – | – | – | –
8 | NCI-H1651 | 0.947 | 0.985 | 0.979 | 0.951 | 0.564 | 0.574 | 0.628 | 0.408 | 0.902 | 0.963 | 1 | 0.935 | 0.362 | 0.329 | 0.46 | 0.353 | 0.355
9 | NCI-H522 | 1.04 | 0.975 | 1.05 | 1.06 | 1.02 | 1.03 | 1.04 | 0.949 | – | – | – | – | 0.727 | 0.661 | 0.594 | 0.716 | 0.728
10 | NCI-H1993 | 0.9 | 0.996 | 0.925 | 1.1 | 0.57 | 0.517 | 0.608 | 0.629 | 0.94 | 0.962 | 1.09 | 1.11 | 0.527 | 0.486 | 0.448 | 0.499 | 0.503
11 | HCC-827 | 1.04 | 1.06 | 1.08 | 1.03 | 0.283 | 0.223 | 0.284 | 0.245 | 1.02 | 1.04 | 1.06 | 1.06 | 0.373 | 0.378 | 0.308 | 0.352 | 0.443
12 | NCI-H1299 | 1.03 | 0.999 | 1.04 | 0.789 | – | – | – | – | 1.02 | 1.03 | 1.09 | 1.02 | – | – | – | – | –
13 | SW 1573 | 0.99 | 1.03 | 1.14 | 0.965 | 0.871 | 0.747 | 0.912 | 0.557 | 1.21 | 1.07 | 1.16 | 1.16 | 0.548 | 0.422 | 0.406 | 0.356 | 0.389
14 | NCI-H1944 | 0.953 | 0.926 | 0.959 | 0.807 | 0.621 | 0.582 | 0.428 | 0.27 | – | – | – | – | 0.209 | 0.195 | 0.229 | 0.195 | 0.203
15 | NCI-H2170 | 1.03 | 0.959 | 0.888 | 0.819 | 0.282 | 0.248 | 0.271 | 0.218 | – | – | – | – | 0.393 | 0.39 | 0.388 | 0.421 | 0.383
16 | SW 900 | 0.738 | 1.07 | 0.885 | 0.49 | 0.457 | 0.484 | 0.492 | 0.443 | – | – | – | – | 0.592 | 0.583 | 0.546 | 0.784 | 0.635
17 | NCI-H2342 | 1.01 | 1.02 | 0.986 | 0.96 | 0.754 | 0.826 | 0.764 | 0.844 | – | – | – | – | 0.554 | 0.522 | 0.503 | 0.67 | 0.566
18 | LK-2 | 0.994 | 1.16 | 1.08 | 1.05 | 0.266 | 0.238 | 0.357 | 0.215 | – | – | – | – | 0.433 | – | 0.236 | 0.387 | 0.472
19 | IA-LM | 0.927 | 0.953 | 1 | 1.03 | – | – | – | – | 0.899 | 0.989 | 0.893 | 0.774 | – | – | – | – | –
20 | NCI-H727 | 0.961 | 0.898 | 1.03 | 0.936 | – | – | – | – | 0.867 | 0.869 | 0.877 | 0.945 | 0.604 | 0.589 | 0.642 | 0.508 | 0.682
21 | NCI-H1793 | 0.787 | 0.835 | 0.885 | 1.09 | 0.808 | 0.913 | 0.756 | 0.782 | – | – | – | – | 0.45 | 0.366 | 0.315 | 0.472 | 0.406
22 | NCI-H1623 | 0.895 | 0.915 | 0.949 | 1.01 | – | – | – | – | – | – | – | – | 0.44 | 0.508 | 0.584 | 0.544 | 0.545
23 | Calu-6 | 1.03 | 1.03 | 1.05 | 0.6 | – | – | – | – | 0.93 | 1.01 | 1.05 | 0.386 | – | – | – | – | –
